Measured values reported in ChEMBL document CHEMBL1157290, “Bioactive isomalabaricane triterpenoids from Rhabdastrella globostellata that stabilize the binding of DNA polymerase beta to DNA” (2006).
The source made the active and inactive calls. No cut-off for these calls is given here. *1 amine or outer side, *2 acyl side, *3 side chain or, on linkers, in order; H or OH if unused. Where a SMILES comes first, the peptide text is derived from it. Bridges are numbered along the chain shown (N, C = ends). Roman numbers before positions name the chains, in order. [ ]: non-standard residue; d: D form. Actinocin(1to9) = Cc1c2oc3c(C)ccc(C(=O)[*:2])c3nc-2c(C(=O)[*:1])c(N)c1=O; NMeV = CN[C@H](C(=O)O)C(C)C; Sar = CNCC(=O)O

Columns and labels:
A2780 = experiment: Cytotoxicity against human A2780 cells; type: functional
Rattus norvegicus = organism: Rattus norvegicus; experiment: Stabilization of rat DNA polymerase binding to DNA by gel mobility assay

## Cc1c2oc3c(C)ccc(C(=O)N[C@@H]4C(=O)N[C@H](C(C)C)C(=O)N5CCC[C@H]5C(=O)N(C)CC(=O)N(C)[C@@H](C(C)C)C(=O)O[C@@H]4C)c3nc-2c(C(=O)N[C@@H]2C(=O)N[C@H](C(C)C)C(=O)N3CCC[C@H]3C(=O)N(C)CC(=O)N(C)[C@@H](C(C)C)C(=O)O[C@@H]2C)c(N)c1=O [DACTINOMYCIN] (I: T[dV]P[Sar][NMeV] / II: T[dV]P[Sar][NMeV]; ester I:1-I:C, II:1-II:C; linker I:N-II:N via Actinocin(1to9))
A2780
  Activity: 0.0017 µM

## CC(=O)O[C@@H]1CC[C@@]2(C)[C@@H](CC[C@]3(C)/C(=C(C)/C=C/C=C(\C)C(CC=C(C)C)O[C@@H]4OC[C@@H](O)[C@@H](O)[C@H]4O)C(=O)C[C@@H]23)C1(C)C (some centres undefined) [STELLIFERIN RIBOSIDE]
A2780
  Activity: 7.3 µM
Rattus norvegicus
  Activity: 29%

## CC(C)=C/C=C/C(C)=C/C=C/C(C)=C1\C(=O)C[C@H]2[C@@]3(C)CC[C@@H](O)[C@](C)(CO)[C@@H]3CC[C@]12C [STELLETTIN J]
A2780
  Activity: 1.2 µM
Rattus norvegicus
  Activity: 8%

## CC(=O)OC[C@]1(C)[C@@H]2CC[C@]3(C)/C(=C(C)/C=C/C=C(\C)[C@H](CC=C(C)C)OC(C)=O)C(=O)C[C@H]3[C@@]2(C)CC[C@H]1OC(C)=O
A2780
  Activity: 27 µM
Rattus norvegicus
  Activity: 23%

## CC(C)=C/C=C/C(C)=C/C=C/C(C)=C1\C(=O)C[C@H]2[C@@]3(C)CC[C@@H](O)[C@](C)(C(=O)O)[C@@H]3CC[C@]12C [STELLETTIN K]
A2780
  Activity: 0.28 µM
Rattus norvegicus
  Activity: inactive
